Results published in ChEMBL document CHEMBL1129730, “Mechanistic studies on the inactivation of papain by epoxysuccinyl inhibitors” (J Med Chem, 1996).
Several values for one entry are separate records, joined by “and”; a condition that tells them apart may be missing. Equal values may be shown once.

Legend:
Papain (Carica papaya) [1] = biological target: T1, Papain (Carica papaya) (UniProt P00784); test: Kinetic constant First order rate of inactivation (K3) for the inhibition of papain conducted in 0.1 M phosphate, pH 6.8, at 30 degree C
T1 sequence (whole entry): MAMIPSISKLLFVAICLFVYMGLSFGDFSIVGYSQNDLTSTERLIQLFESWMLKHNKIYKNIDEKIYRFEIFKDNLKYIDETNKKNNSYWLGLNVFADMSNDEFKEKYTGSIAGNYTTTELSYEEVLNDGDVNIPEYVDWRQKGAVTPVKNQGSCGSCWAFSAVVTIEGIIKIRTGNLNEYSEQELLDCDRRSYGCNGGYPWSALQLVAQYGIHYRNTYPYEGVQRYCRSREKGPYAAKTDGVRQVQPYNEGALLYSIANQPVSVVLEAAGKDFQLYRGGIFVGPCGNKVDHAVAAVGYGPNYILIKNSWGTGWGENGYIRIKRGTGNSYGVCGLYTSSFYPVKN

Papain = biological target: T2, Papain (Carica papaya, UniProt P00784); test: Kinetic constant Apparent binding constant (Ki`) for the inhibition of papain conducted in 0.1 M phosphate, pH 6.8, at 30 degree C
T2 sequence (P00784 whole entry): T1 sequence (whole entry)

Papain (Carica papaya) [2] = biological target: T1, Papain (Carica papaya); test: Inhibition of papain depend on Acid dissociation constant of the protein Papain

| Structure (SMILES) | k3 (Papain (Carica papaya) [1]) [s⁻¹] | Ki (Papain) [µM] | pKa (Papain (Carica papaya) [2]) |
| --- | --- | --- | --- |
| CC(=O)[C@H]1O[C@@H]1C(=O)N[C@@H](CC(C)C)C(=O)NCCC(C)C | 0.47 | 170 |  |
| CCOC(=O)[C@H]1O[C@@H]1C(=O)N[C@@H](CC(C)C)C(=O)NCCC(C)C [ALOXISTATIN] | 0.059 | 52 |  |
| CC(C)CCNC(=O)[C@H](CC(C)C)NC(=O)[C@H]1O[C@@H]1C(N)=O | 0.35 | 51 |  |
| CC(C)CCNC(=O)[C@H](CC(C)C)NC(=O)[C@H]1O[C@@H]1CO | 0.019 | 4400 |  |
| CC(C)CCNC(=O)[C@H](CC(C)C)NC(=O)[C@H]1O[C@@H]1C(=O)NO | 0.67 | 6.6 |  |
| CC(C)CCNC(=O)[C@H](CC(C)C)NC(=O)[C@H]1O[C@@H]1C(=O)O [E-64C] | 0.71 | 2.4 | 3.93 and 4.09 |
